# Assay results: paper PMC9612383, “Biological Activity of NHC-Gold-Alkynyl Complexes Derived from 3-Hydroxyflavones” (Pharmaceutics, 2022)
# Read-outs that look alike come from different tables or passages of the source.
# Tests used:
# [1] = tested on: Caco-2 cells; design: method as in PMID 31546196; conditions: cited from earlier work
# [2] = design: method as in PMID 31546196; conditions: cited from earlier work
# [3] = tested on: Caco-2 cells; assay: MTT antiproliferative assay; type: cell-based, Human; conditions: for IC50: Caco-2 cell line, 72 h incubation, mean ± SE
# Protocol: Human colorectal adenocarcinoma Caco-2 cells were kindly provided by Dr. Edith Brot-Laroche (Universite Pierre et Marie Curie-Paris 6 UMR S872, Les Cordeliers, France) and were maintained in a humidified atmosphere of 5% CO2 at 37 °C in Dulbecco’s Modified Eagles medium (DMEM) (Gibco Invitrogen, Paisley, UK) supplemented with 20% fetal bovine serum, 1% non-essential amino acids, 1% penicillin (1000 U/mL), 1% streptomycin ([…]) and 1% amphotericin (250 U/mL). For treatment, gold complexes were initially dissolved in DMSO to a concentration of 20 mM and then diluted on cell culture without fetal bovine serum to the required work concentrations, which was added 24 h post-seeding. Then, cells were incubated at 37 °C for the required time for each assay.
# Cell viability was determined with the 3-(4,5-dimethyl-2-thiazoyl)-2,5-diphenyltetrazolium bromide (MTT) assay as previously described by Mármol et al.. For IC50 calculation, cells were grown in 96-well plates at a density of 4000 cells per well and incubated overnight at standard culture conditions. Then, cells were exposed 72 h to 0–20 μM of each gold complex and changes in absorbance were converted into percentage of growth inhibition in comparison to negative control (DMSO. Absorbance was measured with SPECTROstar Nano (BMG Labtech).
# [4] = n-Octanol-water distribution coefficient, shake-flask; type: physicochemical; conditions: for LogP7.4 (distribution coefficient): n-octanol / buffered aqueous solution pH 7.4
# Protocol: The n-octanol-water coefficients of the complexes were determined as previously reported using a shake-flask method. Buffered-saline distilled water (100 mL, phosphate buffer [PO4^3−] = 10 mM, [NaCl] = 0.15 M, pH 7.4) and n-octanol (100 mL) were shaken for 72 h to allow saturation of both phases. Approximately 1 mg of the complexes was dissolved in 5 mL of the aqueous phase and 5 mL of the organic phase were added, mixing for 10 min. The resulting emulsion was centrifuged to separate the phases. The concentration of the compounds in each phase was determined using UV absorbance spectroscopy. LogP was defined as log{[compound(organic)]/[compound(aqueous)]}.
# [5] = tested on: panel of Gram-positive and Gram-negative strains; assay: Disk diffusion method, whole panel (summary in words); type: cell-based; conditions: for antibacterial effect (in words): whole panel, Gram-positive and Gram-negative strains
# Protocol: (§1) To evaluate the antibacterial potential of gold derivatives, […] bacterial strains were selected: E. coli, P. aeruginosa, S. enterica, E. faecalis, L. monocytogenes, S. epidermidis, S. aureus. Dis diffusion assay was performed following Clinical & Laboratory Standards Institute (CLSI) recommendations. Active cultures (0.5 McFarland) from all strains were spread onto Mueller–Hinton Agar (MHA, Oxoid, Basingstoke, UK) and disks impregnated with 10 µL of each gold complex or control (DMSO for negative control, phenol for positive control) were placed. Plates were and incubated for 22 h ± 2 h at 37 °C ± 1 °C and then the diameter of the inhibition zone was determined.
# Given that NHC-gold derivatives might display antibacterial activity, we evaluated the antibacterial effect of the complexes toward a panel of Gram-positive and Gram-negative strains using the disk diffusion method. The selected strains are human pathogen or commensal bacteria and the results are summarized on Table 1.
# [6] = tested on: S. aureus 13565; assay: Disk diffusion test; type: cell-based; conditions: for Inhibition Zone: complex 5 μg, 24 h incubation, diameter including disk (6 mm)
# Protocol: (§2) To evaluate the antibacterial potential of gold derivatives, six bacterial strains were selected: E. coli, P. aeruginosa, S. enterica, E. faecalis, L. monocytogenes, S. epidermidis, S. aureus. Dis diffusion assay was performed following Clinical & Laboratory Standards Institute (CLSI) recommendations. […] Plates were and incubated for 22 h ± 2 h at 37 °C ± 1 °C and then the diameter of the inhibition zone was determined.
# [7] = tested on: S. epidermidis; assay: Disk diffusion test; type: cell-based; conditions: for Inhibition Zone: complex 5 μg, 24 h incubation, diameter including disk (6 mm)
# Protocol: as §2
# [8] = tested on: L. monocytogenes; assay: Disk diffusion test; type: cell-based; conditions: for Inhibition Zone: complex 5 μg, 24 h incubation, diameter including disk (6 mm)
# Protocol: as §2
# [9] = tested on: E. faecalis; assay: Disk diffusion test; type: cell-based; conditions: for Inhibition Zone: complex 5 μg, 24 h incubation, diameter including disk (6 mm)
# Protocol: as §2
# [10] = tested on: S. aureus 2593; assay: Disk diffusion test; type: cell-based; conditions: for Inhibition Zone: complex 5 μg, 24 h incubation, diameter including disk (6 mm)
# Protocol: as §2
# [11] = tested on: P. aeruginosa; assay: Disk diffusion test; type: cell-based; conditions: for Inhibition Zone: complex 5 μg, 24 h incubation, diameter including disk (6 mm)
# Protocol: as §2
# [12] = tested on: E. coli 13216; assay: Disk diffusion test; type: cell-based
# Protocol: as §2
# [13] = tested on: E. coli 8739; assay: Disk diffusion test; type: cell-based
# Protocol: as §2
# [14] = tested on: S. enterica 14028; assay: Disk diffusion test; type: cell-based; conditions: Salmonella enterica, 14028, 24 h, read-out: Inhibition Zone
# Protocol: as §2
# [15] = tested on: E. coli 25922; assay: Disk diffusion test; type: cell-based; conditions: Escherichia coli, 25922, 24 h, read-out: Inhibition Zone
# Protocol: as §2
# [16] = tested on: S. enterica 25928; assay: Disk diffusion test; type: cell-based; conditions: Salmonella enterica, 25928; positive control 5.35 mg, 24 h incubation; diameter including disk (6 mm)
# Protocol: as §1
# [17] = tested on: thioredoxin reductase enzyme; design: method as in PMID 31546196; conditions: earlier work of the authors; cited from earlier work
# [18] = tested on: Caco-2 cells; design: method as in PMID 31546196; conditions: earlier work of the authors; cited from earlier work
# [19] = complex 5 μg, 24 h incubation, diameter including disk (6 mm)
smiles,measurement,setting,value
O=c1c(OCC#[C][Au][PH](c2ccccc2)(c2ccccc2)c2ccccc2)c(-c2ccc(Cl)cc2)oc2ccccc12 [[Au(L2c)PPh3]],IC50,[1],5.34 ± 0.05 µM
same,distribution coefficient value,[2],1.17
"COc1ccc(-c2oc3ccccc3c(=O)c2OCC#[C][Au-][c]2n(-c3c(C(C)C)cccc3C(C)C)cc[n+]2-c2c(C(C)C)cccc2C(C)C)cc1 [2d, [Au(Ld)(IPr)] (R = OMe; IPr = C27H38N2)]",IC50,[3],48.2 ± 14.6 µM
same,LogP7.4 (distribution coefficient),[4],3.40
same,antibacterial effect (in words),[5],no antibacterial effect
"Cn1cc[n+](C)[c]1[Au-][C]#CCOc1c(-c2ccc(Cl)cc2)oc2ccccc2c1=O [1c, [Au(Lc)(IMe)] (R = Cl; IMe = C5H10N2)]",IC50,[3],15.1 ± 3.04 µM
same,LogP7.4 (distribution coefficient),[4],1.96
same,antibacterial effect (in words),[5],no antibacterial effect
"CC(C)c1cccc(C(C)C)c1-n1ccn(-c2c(C(C)C)cccc2C(C)C)[c]1=[Au][Cl] [[AuCl(IPr)], reference compound]",IC50,[3],9.09 ± 3.22 µM
"CC(C)c1cccc(C(C)C)c1-n1cc[n+](-c2c(C(C)C)cccc2C(C)C)[c]1[Au-][C]#CCOc1c(-c2ccc(Cl)cc2)oc2ccccc2c1=O [2c, [Au(Lc)(IPr)] (R = Cl; IPr = C27H38N2)]",IC50,[3],46.1 ± 22.5 µM
same,Inhibition Zone,[6],12.19 ± 0.88 mm
same,Inhibition Zone,[7],18.06 ± 2.04 mm
same,Inhibition Zone,[8],15.33 ± 0.47 mm
same,Inhibition Zone,[9],10.25 ± 1.41 mm
same,Inhibition Zone,[10],10.49 ± 1.13 mm
same,Inhibition Zone,[11],-
same,LogP7.4 (distribution coefficient),[4],1.11
same,antibacterial effect on Gram-negative strains (in words),[5],inactive against Gram-negative strains
same,antibacterial effect on Gram-positive strains (in words),[5],able to inhibit the growth of all Gram-positive bacterial strains
"Oc1ccccc1 [Phenol, reference compound]",zone of inhibition at 5350 µg/disc,"[6]; Staphylococcus aureus, 13565, 24 h, read-out: Inhibition Zone",17.2 ± 3.38 mm
same,zone of inhibition at 5350 µg/disc,"[12]; Escherichia coli, 13216, 24 h, read-out: Inhibition Zone",20.7 ± 2.97 mm
same,zone of inhibition at 5350 µg/disc,"[7]; Staphylococcus epidermidis, 24 h, read-out: Inhibition Zone",22.7 ± 4.49 mm
same,zone of inhibition at 5350 µg/disc,"[13]; Escherichia coli, 8739, 24 h, read-out: Inhibition Zone",22.7 ± 1.37 mm
same,zone of inhibition at 5350 µg/disc,[14],27.8 ± 1.11 mm
same,zone of inhibition at 5350 µg/disc,[15],23.4 ± 1.26 mm
same,zone of inhibition at 5350 µg/disc,"[8]; Listeria monocytogenes, 24 h, read-out: Inhibition Zone",16.58 ± 0.12 mm
same,zone of inhibition at 5350 µg/disc,"[9]; Enterococcus faecalis, 24 h, read-out: Inhibition Zone",13.5 ± 2.12 mm
same,zone of inhibition at 5350 µg/disc,"[10]; Staphylococcus aureus, 2593, 24 h, read-out: Inhibition Zone",12.1 ± 0.73 mm
same,zone of inhibition at 5350 µg/disc,"[11]; Pseudomonas aeruginosa, 24 h, read-out: Inhibition Zone",30.5 ± 1.45 mm
same,zone of inhibition at 5350 µg/disc,[16],19.2 ± 0.42 mm
"Cn1cc[n+](C)[c]1[Au-][C]#CCOc1c(-c2ccccc2)oc2ccccc2c1=O [1a, [Au(La)(IMe)] (R = H; IMe = C5H10N2)]",IC50,[3],43.3 ± 5.06 µM
same,LogP7.4 (distribution coefficient),[4],0.34
same,antibacterial effect (in words),[5],no antibacterial effect
"CC(C)c1cccc(C(C)C)c1-n1cc[n+](-c2c(C(C)C)cccc2C(C)C)[c]1[Au-][C]#CCOc1c(-c2ccc(Br)cc2)oc2ccccc2c1=O [2b, [Au(Lb)(IPr)] (R = Br; IPr = C27H38N2)]",IC50,[3],53.9 ± 22.7 µM
same,Inhibition Zone,[6],14.03 ± 0.17 mm
same,Inhibition Zone,[12]; [19],8.10 ± 0.60 mm
same,Inhibition Zone,[7],20.95 ± 0.91 mm
same,Inhibition Zone,[13]; [19],8.97 ± 0.49 mm
same,Inhibition Zone,[8],17.17 ± 0.24 mm
same,Inhibition Zone,[9],12.1 ± 0.99 mm
same,Inhibition Zone,[10],12.79 ± 1.11 mm
same,Inhibition Zone,[11],-
same,LogP7.4 (distribution coefficient),[4],1.47
same,antibacterial effect (in words),[5],able to interfere with the development of both Gram positive and Gram negative strains
"CC(C)c1cccc(C(C)C)c1-n1cc[n+](-c2c(C(C)C)cccc2C(C)C)[c]1[Au-][C]#CCOc1c(-c2ccccc2)oc2ccccc2c1=O [2a, [Au(La)(IPr)] (R = H; IPr = C27H38N2)]",fold lower IC50 of 2a than homologue 1a,"[3]; Caco-2, 72 h, p < 0.05",2.65 times
same,IC50,[3],16.3 ± 2.04 µM
same,lipophilic character (in words),"[4]; from log P, pH 7.4",balanced hydrophilic-lipophilic character
same,LogP7.4 (distribution coefficient),[4],0.42
"Cn1ccn(C)[c]1=[Au-2][Cl] [[AuCl(IMe)], reference compound]",IC50,[3],> 100 µM
same,antiproliferative effect (in words),[3]; Caco-2 cells,ineffective
O=c1c(OCC#[C][Au][PH](c2ccccc2)(c2ccccc2)c2ccccc2)c(-c2ccc(Br)cc2)oc2ccccc12 [[Au(L2b)PPh3]],thioredoxin reductase inhibition (in words),[17],able to inhibit thioredoxin reductase enzyme
same,ROS levels (in words),[18],induce an increase in ROS levels
"CC(=O)OC[C@H]1O[C@@H]([S-])[C@H](OC(C)=O)[C@@H](OC(C)=O)[C@@H]1OC(C)=O.CCP(CC)CC.[Au+] [Auranofin, 2,3,4,6-tetraacetyl-1-thio-β-D-glucopyranosato-S-triethylphosphane gold(I), reference compound]",IC50,[3],1.8 ± 0.1 µM
same,LogP7.4 (distribution coefficient),[4],−2.53
"COc1ccc(-c2oc3ccccc3c(=O)c2OCC#[C][Au-][c]2n(C)cc[n+]2C)cc1 [1d, [Au(Ld)(IMe)] (R = OMe; IMe = C5H10N2)]",IC50,[3],16.3 ± 1.04 µM
same,Inhibition Zone,[6],11.86 ± 0.20 mm
same,Inhibition Zone,[7],17.23 ± 0.87 mm
same,Inhibition Zone,[8],14.25 ± 1.06 mm
same,Inhibition Zone,[9],9.47 ± 1.67 mm
same,Inhibition Zone,[10],9.70 ± 0.02 mm
same,Inhibition Zone,[11],-
same,LogP7.4 (distribution coefficient),[4],0.22
same,antibacterial effect on Gram-negative strains (in words),[5],inactive against Gram-negative strains
same,antibacterial effect on Gram-positive strains (in words),[5],able to inhibit the growth of all Gram-positive bacterial strains
